This is an account of results in article PMC7531601, “Exploiting Lactoferricin (17–30) as a Potential Antimicrobial and Antibiofilm Candidate Against Multi-Drug-Resistant Enteroaggregative Escherichia coli” (Frontiers in Microbiology, 2020).

In data set [1] the test system is G. mellonella larvae infected with MDR-EAEC (a cocktail of three strains). Put plainly: G. mellonella larval survival. It counts as in vivo, Galleria mellonella. The conditions noted are these: uninfected larvae, MIC dose, up to 120 h pi. How it is done: The final instar of G. mellonella larvae was utilized for performing the in vivo assays ([Morgan et al., 2014]). The larvae (ca. 200–250 mg) inoculated with aliquots of MDR-EAEC suspensions (10 μl) by injection using Hamilton syringe (26 gauge) via the last right pro-leg were incubated at 37°C and the observations were noted. The larvae kept in a sterile environment were provided with ad lib food during the experiment.
The determined LD50 dose for each MDR-EAEC strain in the larvae was validated and employed further in the in vivo experiments to evaluate the antibacterial efficacy of Lfcin (17–30).
Galleria mellonella larvae were grouped 40 per group for in vivo antimicrobial testing of Lfcin (17–30) as follows: group I (MDR-EAEC infection control), groups II and III (infection + treatment groups), group IV (PBS control), and group V [Lfcin(17–30) control]. Optimized LD50 dose of MDR-EAEC (a cocktail of three strains) was administered to larvae of groups I to III, while MIC dose of Lfcin (17–30) and Meropenem was administered 3 h post-infection (pi) in groups II and III, respectively. Larval group IV was injected with sterile PBS, whereas MIC dose of Lfcin (17–30) was administered in group V. […]

For data set [2], the system named is L. rhamnosus MTCC 1408. To be noted: 1X MIC, MRS broth, 37°C, 48 h, absorbance 600 nm and plating. How it is done: (§1) Initially, characterization of Lfcin (17–30) was performed by determining its minimum inhibitory concentration (MIC), minimum bactericidal concentration (MBC), in vitro stability assays (high-end temperatures, the physiological concentration of cationic salts and proteases), and in vitro safety assays (sheep erythrocyte hemolysis and secondary cell line cytotoxicity) (Supplementary Files S1–S3). The membrane permeabilization effect of Lfcin (17–30) was assessed by flow cytometry, whereas outer and inner membrane permeability of MDR-EAEC strains treated with 1 × and 2 × MIC levels of Lfcin (17–30) was carried out based on the nitrocefin activity as well as the release of cytoplasmic β-galactosidase activity, respectively (Supplementary File S4). Further, Lfcin (17–30) was evaluated for its antibacterial activity against beneficial lactobacilli (L. acidophilus MTCC 10307 and L. rhamnosus MTCC 1408) (Supplementary File S5).
(§2) Besides, the safety aspect of Lfcin (17-30) against beneficial gut lactobacilli was also investigated. […] After incubation at 37 °C for 48 h, the antibacterial effect of AMP on commensal lactobacilli was measured by observing the absorbance at 600 nm (Thermo Scientific Multiskan GO) as well as drawing two 10 µl samples from each well and plating them onto MRS agar plates. […]

Data set [3] concerns L. acidophilus MTCC 10307. To be noted: 1X MIC, MRS broth, 37°C, 48 h, absorbance 600 nm and plating. How it is done: as §1, §2
The subject of data set [4] is MDR-EAEC strains. To be noted: MDR-EAEC strains (n = 3). How it is done: as §1

Ends that are not written are not given here.

A word on the MBC: it is the lowest tested concentration that kills the bacteria rather than only halting them. Low values mean greater bactericidal potency, high ones weaker bactericidal potency. Usually MIC stands for the least concentration at which growth counts as inhibited. FKCRRWQWRMKKLG [Lfcin (17–30)] returned a survival rate in data set [1] of 100%. Further, the “antimicrobial effect on beneficial lactobacilli” value in data set [2] and in data set [3] was “non-significant” each time. The sequence also showed an MBC in data set [4] (at least 99.9% killing after 24 h) of 32 µM. The same sequence returned an MIC in data set [4] (micro-broth dilution) of 32 µM.
